{
  "source": "patent US11040066B2",
  "about": "“Topical composition for use in the treatment of burns” (Safeguard Medical Holdco, LLC, priority 2017, dated 2021)",
  "experiment": "Gamma radiation resistance of gel formulas (Rounds 1-5)",
  "assay_type": "physicochemical",
  "conditions": "Round 1; summary in words",
  "description": "Following several failed attempts to formulate a composition with suitable viscosity and other properties to function as a burn treatment, the Inventors obtained stable compositions which were sent for testing to assess stability under gamma radiation.\nOVERVIEW: To incorporate: Polyaminopropyl biguanide (INCI name); Chemical name: Polyhexamethylene Biguanide Hydrochloride (PHMB) and later Oriel sea mineral complex into a gel formula that can withstand the impact of gamma radiation sterilisation.\n5 rounds of formulas were sent out for gamma radiations as outlined below.\nRound 1 Summary: Started with our current BD (Burn Dressing) Gel with hyaluronic acid (HA) formula to which various ingredients were added.\nCarbopol is the thickening agent used in BD Gel with HA, the only experiment in round 1 to which PHMB was added.\nRound 2 Summary: Since PHMB was incompatible with Carbopol, new formulas containing various other thickeners were tried. Since propylene glycol, a humectant helped, another humectant (propanediol) was tried. For all the experimental batches made, only the stable formulas were sent out for gamma radiation. Only some of round 2 formulas contain PHMB (20% solution) @0.2% […]\nIn round 5, the final formula was determined from a selection of which were sent out for gamma radiation with acceptable results. […]",
  "data": [
    {"smiles": "CC(O)CO", "note": "(stereo not shown) [propylene glycol, 1,2-Propanediol]", "values": [
      {"measurement": "Change following gamma radiation", "value": "little or no change"}
    ]}
  ]
}
